Reference: patent US11571411B2, “Use of a bisamide derivative of malonic acid for treating allergic and other diseases in humans and animals” (PHARMENTERPRISES ALLERGY LLC, priority 2018, dated 2023)

System: histamine-induced nasal congestion model
Assay: Histamine-induced nasal congestion model in dogs, oral administration
Assay type: in vivo, Beagle dogs
Method: A histamine-induced nasal congestion model in dogs was performed according to the standard procedure [Tiniakov R. L., Tiniakova O. P., McLeod R. L., Hey J. A., Yeates D. B. Canine model of nasal congestion and allergic rhinitis//J Appl Physiol. 2003. V.94(5). P.1821-1828]. Beagle dogs were injected in the nasal cavity with a 5% histamine solution in a volume of 250 μl/nostril. The volume of the nasal cavity of the right and left nostrils was measured using a rhinometer before and 5, 10, 15, 20, 30, 40, 50 and 60 minutes after administration of histamine. Three experiments were performed, in which Compound I was administered orally once at different times: 1) 30 minutes before administration of histamine; 2) 1 hour before administration of histamine; and 3) 6 hours before administration of histamine, and one experiment was performed, in which Compound I was administered orally once daily for 14 days, the last administration was carried out 1 hour before administration of histamine.

[1] = oral 1 hour before histamine, 0.005 mg/kg, 5 minutes after histamine
[2] = oral 1 hour before histamine, 0.005 mg/kg, 10 minutes after histamine
[3] = oral 1 hour before histamine, 0.005 mg/kg, 15 minutes after histamine
[4] = oral 1 hour before histamine, 0.005 mg/kg, 20 minutes after histamine
[5] = oral 1 hour before histamine, 0.005 mg/kg, 30 minutes after histamine
[6] = oral 1 hour before histamine, 0.005 mg/kg, 40 minutes after histamine
[7] = oral 1 hour before histamine, 0.005 mg/kg, 50 minutes after histamine
[8] = oral 1 hour before histamine, 0.005 mg/kg, 60 minutes after histamine
[9] = oral 1 hour before histamine, 0.005 mg/kg, before histamine administration
[10] = oral 1 hour before histamine, 0.05 mg/kg, 5 minutes after histamine
[11] = oral 1 hour before histamine, 0.05 mg/kg, 10 minutes after histamine
[12] = oral 1 hour before histamine, 0.05 mg/kg, 15 minutes after histamine
[13] = oral 1 hour before histamine, 0.05 mg/kg, 20 minutes after histamine
[14] = oral 1 hour before histamine, 0.05 mg/kg, 30 minutes after histamine
[15] = oral 1 hour before histamine, 0.05 mg/kg, 40 minutes after histamine
[16] = oral 1 hour before histamine, 0.05 mg/kg, 50 minutes after histamine
[17] = oral 1 hour before histamine, 0.05 mg/kg, 60 minutes after histamine
[18] = oral 1 hour before histamine, 0.05 mg/kg, before histamine administration
[19] = oral 1 hour before histamine, 0.54 mg/kg, 5 minutes after histamine
[20] = oral 1 hour before histamine, 0.54 mg/kg, 10 minutes after histamine
[21] = oral 1 hour before histamine, 0.54 mg/kg, 15 minutes after histamine
[22] = oral 1 hour before histamine, 0.54 mg/kg, 20 minutes after histamine
[23] = oral 1 hour before histamine, 0.54 mg/kg, 30 minutes after histamine
[24] = oral 1 hour before histamine, 0.54 mg/kg, 40 minutes after histamine
[25] = oral 1 hour before histamine, 0.54 mg/kg, 50 minutes after histamine
[26] = oral 1 hour before histamine, 0.54 mg/kg, 60 minutes after histamine
[27] = oral 1 hour before histamine, 0.54 mg/kg, before histamine administration
[28] = oral 6 hours before histamine, 0.005 mg/kg, 5 minutes after histamine
[29] = oral 6 hours before histamine, 0.005 mg/kg, 10 minutes after histamine
[30] = oral 6 hours before histamine, 0.005 mg/kg, 15 minutes after histamine
[31] = oral 6 hours before histamine, 0.005 mg/kg, 20 minutes after histamine
[32] = oral 6 hours before histamine, 0.005 mg/kg, 30 minutes after histamine
[33] = oral 6 hours before histamine, 0.005 mg/kg, 40 minutes after histamine
[34] = oral 6 hours before histamine, 0.005 mg/kg, 50 minutes after histamine
[35] = oral 6 hours before histamine, 0.005 mg/kg, 60 minutes after histamine
[36] = oral 6 hours before histamine, 0.005 mg/kg, before histamine administration
[37] = oral 6 hours before histamine, 0.05 mg/kg, 5 minutes after histamine
[38] = oral 6 hours before histamine, 0.05 mg/kg, 10 minutes after histamine
[39] = oral 6 hours before histamine, 0.05 mg/kg, 15 minutes after histamine
[40] = oral 6 hours before histamine, 0.05 mg/kg, 20 minutes after histamine
[41] = oral 6 hours before histamine, 0.05 mg/kg, 30 minutes after histamine
[42] = oral 6 hours before histamine, 0.05 mg/kg, 40 minutes after histamine
[43] = oral 6 hours before histamine, 0.05 mg/kg, 50 minutes after histamine
[44] = oral 6 hours before histamine, 0.05 mg/kg, 60 minutes after histamine
[45] = oral 6 hours before histamine, 0.05 mg/kg, before histamine administration
[46] = oral 6 hours before histamine, 0.54 mg/kg, 5 minutes after histamine
[47] = oral 6 hours before histamine, 0.54 mg/kg, 10 minutes after histamine
[48] = oral 6 hours before histamine, 0.54 mg/kg, 15 minutes after histamine
[49] = oral 6 hours before histamine, 0.54 mg/kg, 20 minutes after histamine
[50] = oral 6 hours before histamine, 0.54 mg/kg, 30 minutes after histamine

## O=C(CC(=O)NCCc1cnc[nH]1)NCCc1cnc[nH]1 [Compound I, N,N′-bis(2-(1H-imidazol-5-yl)ethyl)malonamide]
After a single oral administration, dogs
  onset of the therapeutic effect: ≤ 30 min
[1]
  Volume of the nasal cavity, left nostril: 3.1 ± 0.2$ cm^3
  Volume of the nasal cavity, right nostril: 3.1 ± 0.5$ cm^3
[2]
  Volume of the nasal cavity, left nostril: 2.4 ± 0.4$ cm^3
  Volume of the nasal cavity, right nostril: 2.1 ± 0.1$ cm^3
[3]
  Volume of the nasal cavity, left nostril: 2.2 ± 0.2$ cm^3
  Volume of the nasal cavity, right nostril: 2.8 ± 0.5$ cm^3
[4]
  Volume of the nasal cavity, left nostril: 2.3 ± 0.14$ cm^3
  Volume of the nasal cavity, right nostril: 2.6 ± 0.4$ cm^3
[5]
  Volume of the nasal cavity, left nostril: 2.0 ± 0.2$ cm^3
  Volume of the nasal cavity, right nostril: 3.0 ± 0.5$ cm^3
[6]
  Volume of the nasal cavity, left nostril: 3.6 ± 0.2 cm^3
  Volume of the nasal cavity, right nostril: 3.4 ± 0.2$ cm^3
[7]
  Volume of the nasal cavity, left nostril: 3.3 ± 0.2$ cm^3
  Volume of the nasal cavity, right nostril: 3.7 ± 0.24$ cm^3
[8]
  Volume of the nasal cavity, left nostril: 3.4 ± 0.1$ cm^3
  Volume of the nasal cavity, right nostril: 3.5 ± 0.2$ cm^3
[9]
  Volume of the nasal cavity, left nostril: 3.9 ± 0.2 cm^3
  Volume of the nasal cavity, right nostril: 4.3 ± 0.2 cm^3
[10]
  Volume of the nasal cavity, left nostril: 2.8 ± 0.1$ cm^3
  Volume of the nasal cavity, right nostril: 2.8 ± 0.3$ cm^3
[11]
  Volume of the nasal cavity, left nostril: 3.1 ± 0.24$ cm^3
  Volume of the nasal cavity, right nostril: 3.5 ± 0.24$ cm^3
[12]
  Volume of the nasal cavity, left nostril: 3.1 ± 0.14$ cm^3
  Volume of the nasal cavity, right nostril: 2.6 ± 0.2$ cm^3
[13]
  Volume of the nasal cavity, left nostril: 2.5 ± 0.14$ cm^3
  Volume of the nasal cavity, right nostril: 2.5 ± 0.14$ cm^3
[14]
  Volume of the nasal cavity, left nostril: 3.6 ± 0.24 cm^3
  Volume of the nasal cavity, right nostril: 3.5 ± 0.24 cm^3
[15]
  Volume of the nasal cavity, left nostril: 3.7 ± 0.34 cm^3
  Volume of the nasal cavity, right nostril: 3.7 ± 0.24 cm^3
[16]
  Volume of the nasal cavity, left nostril: 3.2 ± 0.1$ cm^3
  Volume of the nasal cavity, right nostril: 3.2 ± 0.1$ cm^3
[17]
  Volume of the nasal cavity, left nostril: 3.2 ± 0.1$ cm^3
  Volume of the nasal cavity, right nostril: 3.5 ± 0.1$ cm^3
[18]
  Volume of the nasal cavity, left nostril: 4.0 ± 0.3 cm^3
  Volume of the nasal cavity, right nostril: 4.2 ± 0.2 cm^3
[19]
  Volume of the nasal cavity, left nostril: 2.6 ± 0.1$ cm^3
  Volume of the nasal cavity, right nostril: 3.0 ± 0.4$ cm^3
[20]
  Volume of the nasal cavity, left nostril: 3.4 ± 0.14$ cm^3
  Volume of the nasal cavity, right nostril: 3.0 ± 0.24$ cm^3
[21]
  Volume of the nasal cavity, left nostril: 2.5 ± 0.2$ cm^3
  Volume of the nasal cavity, right nostril: 3.0 ± 0.24$ cm^3
[22]
  Volume of the nasal cavity, left nostril: 2.5 ± 0.24$ cm^3
  Volume of the nasal cavity, right nostril: 2.8 ± 0.34$ cm^3
[23]
  Volume of the nasal cavity, left nostril: 3.8 ± 0.24 cm^3
  Volume of the nasal cavity, right nostril: 3.6 ± 0.24$ cm^3
[24]
  Volume of the nasal cavity, left nostril: 3.6 ± 0.14$ cm^3
  Volume of the nasal cavity, right nostril: 3.6 ± 0.24$ cm^3
[25]
  Volume of the nasal cavity, left nostril: 3.3 ± 0.3$ cm^3
  Volume of the nasal cavity, right nostril: 3.4 ± 0.1$ cm^3
[26]
  Volume of the nasal cavity, left nostril: 3.3 ± 0.2$ cm^3
  Volume of the nasal cavity, right nostril: 3.2 ± 0.2$ cm^3
[27]
  Volume of the nasal cavity, left nostril: 4.1 ± 0.1 cm^3
  Volume of the nasal cavity, right nostril: 4.4 ± 0.1 cm^3
[28]
  Volume of the nasal cavity, left nostril: 2.0 ± 0.3$ cm^3
  Volume of the nasal cavity, right nostril: 2.1 ± 0.3$ cm^3
[29]
  Volume of the nasal cavity, left nostril: 1.9 ± 0.1$ cm^3
  Volume of the nasal cavity, right nostril: 2.0 ± 0.1$ cm^3
[30]
  Volume of the nasal cavity, left nostril: 2.4 ± 0.24$ cm^3
  Volume of the nasal cavity, right nostril: 2.4 ± 0.14$ cm^3
[31]
  Volume of the nasal cavity, left nostril: 3.2 ± 0.24$ cm^3
  Volume of the nasal cavity, right nostril: 3.2 ± 0.24$ cm^3
[32]
  Volume of the nasal cavity, left nostril: 3.3 ± 0.14$ cm^3
  Volume of the nasal cavity, right nostril: 3.4 ± 0.14$ cm^3
[33]
  Volume of the nasal cavity, left nostril: 3.3 ± 0.2$ cm^3
  Volume of the nasal cavity, right nostril: 3.4 ± 0.1$ cm^3
[34]
  Volume of the nasal cavity, left nostril: 3.4 ± 0.1$ cm^3
  Volume of the nasal cavity, right nostril: 3.5 ± 0.2$ cm^3
[35]
  Volume of the nasal cavity, left nostril: 3.6 ± 0.2$ cm^3
  Volume of the nasal cavity, right nostril: 3.4 ± 0.2$ cm^3
[36]
  Volume of the nasal cavity, left nostril: 4.4 ± 0.1 cm^3
  Volume of the nasal cavity, right nostril: 4.4 ± 0.2 cm^3
[37]
  Volume of the nasal cavity, left nostril: 2.2 ± 0.1$ cm^3
  Volume of the nasal cavity, right nostril: 2.2 ± 0.2$ cm^3
[38]
  Volume of the nasal cavity, left nostril: 2.4 ± 0.2$ cm^3
  Volume of the nasal cavity, right nostril: 2.3 ± 0.2$ cm^3
[39]
  Volume of the nasal cavity, left nostril: 2.0 ± 0.24$ cm^3
  Volume of the nasal cavity, right nostril: 2.0 ± 0.14$ cm^3
[40]
  Volume of the nasal cavity, left nostril: 3.4 ± 0.14$ cm^3
  Volume of the nasal cavity, right nostril: 3.2 ± 0.24$ cm^3
[41]
  Volume of the nasal cavity, left nostril: 3.4 ± 0.24$ cm^3
  Volume of the nasal cavity, right nostril: 3.4 ± 0.14$ cm^3
[42]
  Volume of the nasal cavity, left nostril: 3.1 ± 0.1$ cm^3
  Volume of the nasal cavity, right nostril: 3.1 ± 0.1$ cm^3
[43]
  Volume of the nasal cavity, left nostril: 3.4 ± 0.1$ cm^3
  Volume of the nasal cavity, right nostril: 3.4 ± 0.1$ cm^3
[44]
  Volume of the nasal cavity, left nostril: 3.6 ± 0.1$ cm^3
  Volume of the nasal cavity, right nostril: 3.5 ± 0.1$ cm^3
[45]
  Volume of the nasal cavity, left nostril: 4.2 ± 0.2 cm^3
  Volume of the nasal cavity, right nostril: 4.1 ± 0.1 cm^3
[46]
  Volume of the nasal cavity, left nostril: 2.7 ± 0.2$ cm^3
  Volume of the nasal cavity, right nostril: 2.7 ± 0.3$ cm^3
[47]
  Volume of the nasal cavity, left nostril: 2.8 ± 0.24$ cm^3
  Volume of the nasal cavity, right nostril: 2.8 ± 0.24$ cm^3
[48]
  Volume of the nasal cavity, left nostril: 2.8 ± 0.14$ cm^3
  Volume of the nasal cavity, right nostril: 2.8 ± 0.24$ cm^3
[49]
  Volume of the nasal cavity, left nostril: 3.4 ± 0.14$ cm^3
  Volume of the nasal cavity, right nostril: 3.5 ± 0.14$ cm^3
[50]
  Volume of the nasal cavity, left nostril: 3.5 ± 0.24$ cm^3
  Volume of the nasal cavity, right nostril: 3.4 ± 0.14$ cm^3
